{"source": "patent US20200138750A1", "about": "“Use of Mustard Seed Oil (Allyl Isothiocyanate) to relieve headache pain” (priority 2018, published 2020)", "tested_on": "users suffering with headaches", "assay": "Inhalation of pure AITC vapor through the nostrils by users with headaches", "format": "in vivo", "method": "In the present invention AITC is taken in to its purest form. To treat headache instantly, Purest AITC needs to be inhaled deeply for up to 5 seconds in each nostril. If it is taken correctly, due to its pungency and potency, the vapor of AITC will instantly felt inside on the top of the crown of the user's head.\nIf AITC is inhaled properly and as directed, most users will be out of irritation in less than 2 minutes.\nIn current studies we have used pure AITC in above mentioned quantity into small dark thick glass vials with aluminum seal and tight screw caps. The bottles are also very small mouth.", "data": [{"smiles": "C=CCN=C=S", "note": "[AITC, Allyl isothiocyanate]", "values": [{"measurement": "time until users are out of irritation after inhalation", "setting": "AITC inhaled properly and as directed, most users", "value": "less than 2 minutes"}, {"measurement": "nasal mucus, sinus pressure and sinus headache", "setting": "inhalation", "value": "relives sinusitis pressure and sinus headaches"}, {"measurement": "addiction or rebound headaches", "setting": "inhalation remedy", "value": "does not lead to addiction or rebound headaches"}, {"measurement": "side effects", "setting": "inhalation remedy", "value": "does not have any side effects"}, {"measurement": "headache relief", "setting": "inhalation, users with headaches", "value": "headache is also relieved"}, {"measurement": "irritation and lachrymal effect on deep inhalation", "setting": "inhaled deeply", "value": "instantly irritated and most likely get tears from eyes"}, {"measurement": "natural versus synthetic AITC in treating headaches", "setting": "natural (from mustard seeds, horseradish or wasabi) vs synthetic (99.9% pure)", "value": "almost same result in treating headaches"}, {"measurement": "time to relief from headache pain", "setting": "pure AITC inhaled as directed, most users suffering with headaches", "value": "relived from pain in seconds in most cases or up to couple of minutes"}]}]}
